From patent US20070142465A1, “Macrophage activation inhibitor” (priority 2003, published 2007)

Assays:
NF-κB = test: Inhibition of NF-κB activation; details: compared with (±)-DHM2EQ
RAW264.7 cells [1] = test: NO production in activated RAW264.7 cells (Griess reagent, OD570); assay type: cell-based
Description: It is known that, in macrophages, the expression of iNOS is induced by lipopolysaccharides such as LPS and interferons such as IFN-γ, thereby triggering NO production. Thus, by using macrophage-derived cultured cells, the influence of (±)-DHM2EQ on NO production when LPS and IFN-γ were used in combination with (±)-DHM2EQ was examined.
(§1) Since NO produced is released out of cells and mixed in the medium, being present as NO2^−, the amount of NO produced was determined by developing a color reaction and measuring optical density (OD570) after the addition of the Griess reagent to the a medium. Then, each amount of NO produced when (±)-DHM2EQ was applied at different concentrations was compared as a relative value by taking OD570 of the sample […] the addition of macrophage activating factor as 100%.
(§2) A cell suspension prepared at 4×10^5 cells/ml was plated at 200 μl/well in 96-well plates (Costar:Acton, Mass.). (±)-DHM2EQ was diluted at 0, 1, 3, and 10 μg/ml and added to each well of the plates. After 2-hour incubation under the condition of 37° C. in 5% CO2, IFN-γ (final concentration: 100 ng/ml) and LPS (final concentration: 10 μg/ml) were added to the wells and then the plates were incubated for 18 hours. 100 μl of the Griess reagent was added to each of the cell suspensions and allowed to react for 10 min, and then OD570 was measured with a microplate reader.

RAW264.7 cells [2] = test: Intracellular NO in RAW264.7 cells observed in situ with DAF-2DA fluorescence; assay type: cell-based; details: IFN-γ + LPS, 10 μg/ml compound
Description: Further, to observe suppression of NO production in situ in macrophage-derived RAW264.7 cells by (±)-DHM2EQ when LPS and IFN-γ are used in combination with (±)-DHM2EQ, intracellular NO was directly observed using diaminofluorescein-2 diacetate (DAF-2DA; Daiich Pure Chemicals).
500 μl of RAW264.7 cells were first plated in each chamber on chamber slides at a concentration of 6×10^5 cells/ml. After 1 day incubation under the condition of 37° C. in 5% CO2, (±)-DHM2EQ was added, followed by 2-hour incubation. Subsequently, IFN-γ (final concentration: 100 ng/ml) and LPS (final concentration: 10 μg/ml) were added, followed by 6-hour incubation. Then, the medium was changed to DAF-2DA-containing phosphate buffered saline (PBS; 8 g/l NaCl, 0.2 g/l KCl, 0.916 g/l Na2HPO4, 0.2 g/l KH2PO4), followed by further 2-hour incubation. The fluorescence images were then observed with a fluorescence microscope.

RAW264.7 cells [3] = test: iNOS expression in LPS-activated RAW264.7 cells (Western blot); assay type: cell-based; details: LPS 10 μg/ml, 24 h, 0, 1, 3, 10 μg/ml compound
Description: Since NO is produced by the enzyme iNOS within cells, it was examined whether this suppression results from suppression of iNOS expression.
Cells were plated in 100 mm dishes at 4×10^5 cells/ml, incubated overnight, and then (±)-DHM2EQ was added at final concentrations of 0, 1, 3, and 10 μg/ml. After 2 hours, LPS (final concentration: 10 μg/ml) was added to stimulate for 24 hours. Then, cell suspension was collected and centrifuged, and cells were lysed in 65 μl of prepared lysis buffer (50 mM Tris-HCl: pH 8.0, 1% NP-40, 20 mM EDTA, 100 mM NaVO4, 0.1 mg/ml leupeptin, 1 mM PMSF). Then, the supernatant of the cell lysate was isolated, each protein concentration was measured, and the predetermined mass of protein was boiled as a sample. This sample was subjected to SDS-PAGE and the proteins on the gel were transferred to a nitrocellulose membrane, which was then reacted with anti-iNOS antibody (Santa Cruz) followed by sheep anti-rabbit IgG antibody (Amersham). Subsequently, color was developed by the ECL detection system, and the signal was detected by exposing the membrane to the film (Fuji Photo Film)

RAW264.7 cells [4] = test: IL-6 secretion from LPS-activated RAW264.7 cells (ELISA); assay type: cell-based; details: LPS 10 μg/ml, 24 h
RAW264.7 cells [5] = test: Phagocytosis of fluorescent-labeled E. coli by activated RAW264.7 cells; assay type: cell-based
Source text: Macrophages contribute to host defense mechanism by, when infected with bacteria, engulfing the whole or part of the bacteria as foreign matter and digesting the foreign matter in the lysosome containing hydrolytic enzymes, etc. This penomenon of engulfing foreign matter, referred to as phagocytosis, is marker of macrophage activation. Thus, by using as a marker phagocytotic ability of RAW264.7 cells derived from macrophages activated by the LPS or IL-1β stimulation, the effect of (±)-DHM2EQ on macrophage activation was examined.
500 μl of RAW264.7 cells were plated in each chamber at a concentration of 4×10^5 cells/ml in chamber slides. After an overnight incubation, (±)-DHM2EQ was added, and the slides were incubated for 2 hours. LPS (final concentration: 1 μg/ml) was then added, and the slides were incubated for 10 mins and then washed with 750 μl of PBS two times. Subsequently, PBS was removed and 250 μl of the solution containing fluorescent-labeled E. coli (Molecular probes, U.S.) (i.e. a solution of fluorescent-labeled E. coli diluted with […] of PBS) was added to each chamber, and the slides were incubated for 2 hours at room temperature the cells were then washed twice in 750 μl of PBS and the phagocytic ability of macrophage-derived RAW264.7 cells were observed under a fluorescence microscope and a phase-contrast microscope. In addition, in the activation using IL-1β, the phagocytic ability of macrophage-derived RAW264.7 cells was examined in the same manner as above, except that IL-1β (final concentration: 10 ng/ml) was added in place of LPS.

J774.1 cells = test: NO production in activated J774.1 cells (Griess reagent); assay type: cell-based; details: IFN-γ + LPS
Description: as §1, §2
The effect of (±)-DHM2EQ on NO production in another activated macrophage-derived cell line, J774.1, was examined in the same manner as described in Example 1.

RAW264.7 cells [6] = test: TNF-α secretion from IL-1β-activated RAW264.7 cells; assay type: cell-based; details: IL-1β 10 ng/ml, 6 h
RAW264.7 cells [7] = test: IL-1β secretion from LPS-activated RAW264.7 cells (ELISA); assay type: cell-based, mouse; details: LPS 10 μg/ml, 24 h, 0, 1, 3, 10 μg/ml compound
Description: Next, the effect of (±)-DHM2EQ on IL-1β secretion, which is another marker of macrophage activation in macrophage-derived RAW264.7 cells activated by […], was examined.
500 μl of RAW264.7 cells were plated in each well at a concentration of 4×10^5 cells/ml, and the plates were incubated at 37° C. for 1-day. (±)-DHM2EQ (final concentrations: 0, 1, 3, and 10 μg/ml) was then added followed by 2-hour incubation and then LPS (final concentration: 10 μg/ml) was added followed by 24-hour stimulation. After the stimulation, the cell supernatant was recovered (500 μ/l each), and centrifuged at 15000 rpm for 2 min, and the insoluble fractions were removed; the samples were thus obtained.
The amount of IL-1β secretion was examined using mouse IL-1β ELISA assay kit (R&D Systems; Minneapolis, U.S.). First, 50 μl of Reaction Buffer was added to 96-well microplates, on which mouse IL-1β antibody (polyclonal antibody) had been fixed, and 50 βl of the aforementioned sample were applied to each well of the plates. […] Subsequently, 100 μl of stopping solution was added and the OD value at 450 nm was measured using a microplate reader. Then, the concentration of IL-1β was determined from the calibration curve constructed using mouseIL-1β standard supplied with mouse IL-1β ELISA assay kit.

RAW264.7 cells [8] = test: COX-2 production in LPS-activated RAW264.7 cells (Western blot); assay type: cell-based; details: LPS 10 μg/ml, 24 h, 1, 3, 10 μg/ml compound
Source text: It is known that macrophages activated by inflammatory stimuli and growth factor produces COX-2, a prostaglandin synthase, which is responsible for various pathological conditions such as inflammation, cancer cell proliferation, cancer development, angiogenesis, tumor metastasis, etc. Further, it has recently been known that, in systemic lupus erythematosus (SLE), which is an autoimmune disease, self-reactive T cells acquire resistance to apoptosis with increasing COX-2 expression (Nature Medicine 10, 411-415, 2004) Thus, on the assumption that use of (±)-DHM2EQ might make it possible to inhibit macrophage activation and thereby to suppress COX-2 production, the effect of (±)-DHM2EQ on COX-2 production in RAW264.7 cells derived from macrophages activated by LPS stimulation was examined.
RAW264.7 cells were plated at 4×10^6 cells/dish in a 100 mm dish (Coaster:Acton, Mass.) containing DMEM medium, and the plates were incubated overnight at 37° C. under 5% CO2. Then, (±)-DHM2EQ (final concentrations: 1, 3, and 10 μg/ml) was added followed by 2-hour incubation and then LPS (final concentration: 10 μg/ml) was added followed by 24-hour stimulation. The cells were then recovered and lysed with 65 μl of lysis buffer (50 mM Tris-HCl: pH 8.0, 1% NP-40, 20 mM EDTA, 100 mM NaVO4, 0.1 mg/ml leupeptin, 1 mM PMSF) and SDS-PAGE was performed. […]

| Structure (SMILES) | inhibitory effect on NF-κB activation (NF-κB) | NO production (RAW264.7 cells [1]; IFN-γ 100 ng/ml + LPS 10 μg/ml, 18 h, 0, 1, 3, 10 μg/ml compound) | NO production (RAW264.7 cells [1]; IFN-γ + LPS, 10 μg/ml compound) | intracellular NO production (DAF-2DA fluorescence) (RAW264.7 cells [2]) | iNOS expression (RAW264.7 cells [3]) | IL-6 production (RAW264.7 cells [4]) | phagocytosis of E. coli (RAW264.7 cells [5]; IL-1β stimulation, pretreatment with 10 μg/ml compound) | phagocytosis of E. coli (RAW264.7 cells [5]; LPS stimulation, pretreatment with 10 μg/ml compound) | phagocytosis of E. coli (RAW264.7 cells [5]; LPS stimulation, pretreatment, concentration series) | NO production (J774.1 cells; 10 μg/ml compound) | NO production (J774.1 cells; concentration series) | TNF-α production (RAW264.7 cells [6]) | IL-1β secretion (RAW264.7 cells [7]) | COX-2 production (RAW264.7 cells [8]) |
| --- | --- | --- | --- | --- | --- | --- | --- | --- | --- | --- | --- | --- | --- | --- |
| O=C(NC1=CC(=O)[C@H]2O[C@H]2[C@H]1O)c1ccccc1O [(−)-DHM2EQ] | stronger inhibitory effect on NF-κB activation than (±)-DHM2EQ | – | – | – | – | – | – | – | – | – | – | – | – | – |
| O=C(NC1=CC(=O)C2OC2C1O)c1ccccc1O (racemic) [(±)-DHM2EQ, 5,6-epoxy-4-hydroxy-3-salicyloylamino-2-cyclohexenone] | – | suppressed depending on the concentration of (±)-DHM2EQ added | suppressed almost to the control level | suppressed to the control level | suppresses the expression of iNOS depending on its treatment concentration | suppresses IL-6 production depending on its treatment concentration | suppressed almost to the same level as the control | suppressed almost to the same level as the control | suppressed depending on its treatment concentration | suppressed to the control level | suppressed depending on (±)-DHM2EQ treatment concentration | suppresses TNF-α production depending on its treatment concentration | suppresses the expression of IL-1β depending on its treatment concentration | suppresses COX-2 production depending on its treatment concentration |
